The values below come from patent US11358969B2, “Indole AHR inhibitors and uses thereof” (Ikena Oncology, Inc., priority 2017, dated 2022).

Like-named read-outs stand apart in the source and are kept apart here.

Data set [1] deals with T1, AHR (UniProt P35869).
T1 construct: IC50
T1 sequence (P35869 1-848): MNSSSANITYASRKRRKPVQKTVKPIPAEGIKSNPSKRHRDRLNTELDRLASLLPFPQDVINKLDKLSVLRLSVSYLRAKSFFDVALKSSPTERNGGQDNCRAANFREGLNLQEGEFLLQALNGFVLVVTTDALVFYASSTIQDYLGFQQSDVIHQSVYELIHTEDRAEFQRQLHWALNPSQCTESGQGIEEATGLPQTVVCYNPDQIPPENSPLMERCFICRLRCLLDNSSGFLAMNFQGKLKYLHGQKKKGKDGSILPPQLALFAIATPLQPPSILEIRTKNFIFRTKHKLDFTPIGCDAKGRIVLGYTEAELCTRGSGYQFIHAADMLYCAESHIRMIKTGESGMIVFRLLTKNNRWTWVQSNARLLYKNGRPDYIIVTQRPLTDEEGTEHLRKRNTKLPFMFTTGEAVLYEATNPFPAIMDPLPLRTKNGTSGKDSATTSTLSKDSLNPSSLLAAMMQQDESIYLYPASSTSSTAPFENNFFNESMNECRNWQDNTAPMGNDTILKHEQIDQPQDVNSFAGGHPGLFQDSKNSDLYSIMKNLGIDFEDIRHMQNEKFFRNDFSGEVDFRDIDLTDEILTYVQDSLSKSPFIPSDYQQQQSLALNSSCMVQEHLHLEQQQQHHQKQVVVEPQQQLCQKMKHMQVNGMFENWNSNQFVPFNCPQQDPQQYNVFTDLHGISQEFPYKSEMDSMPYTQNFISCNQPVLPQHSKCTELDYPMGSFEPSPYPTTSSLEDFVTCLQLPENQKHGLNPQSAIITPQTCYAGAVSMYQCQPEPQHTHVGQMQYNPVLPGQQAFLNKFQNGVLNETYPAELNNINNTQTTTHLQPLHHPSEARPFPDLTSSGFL
The experiment in a line: DRE-Luciferase Reporter Assay (Alternate Method) (Example 1B). The class given is cell-based, murine or human. The note with it: cell line and AHR activating ligand not specified.

The target of data set [2] is T1, AHR. The experiment in a line: DRE-Luciferase Reporter Assay (Example 1A). The class given is cell-based, murine or human. The note with it: cell line and AHR activating ligand not specified. As to the method:
AHR binds to Dioxin Responsive Elements (DRE) upstream of genes that it activates. One measure of AHR activity is activation of a reporter gene, such as luciferase, downstream of one or multiple DRE elements. Luciferase activity will reflect activation and inhibition of AHR in the cells expressing his reporter.
Murine Hepa1-6 or Hepa-1c1c7 or other murine cell line with a DRE-luciferase reporter either stably or transiently transfected were plated in media in plates (96-well, 384-well or other plates) and incubated overnight at 37° C. in a CO2 incubator. Likewise, human HepG2 or other human cell line with a DRE-luciferase reporter either stably or transiently transfected were plated in media in plates (96-well, 384-well or other plates) and incubated overnight at 37° C. in a CO2 incubator.
The next day, an AHR activating ligand, such as TCDD, kynurenine, ITE (2-(1H-indole-3-ylcarbonyl)-4-thiazolecarboxylic methyl ester), VAF347, BNF (beta-naphthoflavone), FICZ (6-formylindolo(3,2-b) carbazole or other AHR ligands, was added with or without AHR antagonist.
Cells were incubated for 4, 15 or 24 hours or another time point and then lysed for determination of luciferase activity as a read-out of the AHR activation or inhibition. Luciferase was measured with a commercial kit such as the Promega Luciferase kit or any kit or reagents that provide the luciferin substrate for measuring luciferase activity. The level of luciferase with only activating ligand added was the maximum signal while the luciferase with no ligand was the minimum signal. IC50 values were determined as the concentration which inhibits half of the luciferase activity.
In general terms: In a reporter assay the amount or activity of a reporter protein is the signal.

Data set [3] in a line: In Vitro Mouse liver S9 Metabolic Stability Assay (Example 1D). It is filed as in vitro ADME. The following applies: CD-1 mouse liver S9, 1 μM compound, 1 mg/mL S9 protein, 37° C., NADPH regenerating system, UDPGA, PAPS. The method in brief:
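Compound at 1 μM final (0.1% DMSO) incubated at 37° C with pooled CD-1 mouse liver S9 (1 mg/mL protein) plus NADPH-regenerating system, UDPGA and PAPS. Samples at 0 and 60 min quenched in cold acetonitrile with internal standard; LC-MS/MS analyte/IS peak-area ratios give % remaining at 60 min.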

A short description of data set [4]: Mouse Pharmacokinetic Study (Example 1C). The class given is in vivo. The following applies: mouse, plasma, CD-1 mice; for Vd: read-out: Vdss. The method, boiled down: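 CD-1 mice dosed intravenously or by oral gavage; plasma sampled at 0.167, 0.5, 1, 2, 4, 6, 12 and 24 h post-dose. Samples analyzed by LC/MS/MS (MRM, positive mode) against a plasma standard curve of 1.0–3000 ng/mL; PK parameters from non-compartmental analysis.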

Data set [5] has as its system Cyp1a1. Kind of data set: In Vivo Mouse liver and spleen Cyp1a1 Modulation Assay (Example 1E). The arrangement: species or system C57BL/6 mice. The note with it: po, dose 30 mg/kg, with AHR agonist VAG539 30 mg/kg po, qPCR. As to the method:
C57BL/6 mice, female, 6-8 weeks old, weighing approximately 18-20 g were purchased from Shanghai Lingchang Biological Technology Co., Ltd or other certified vendors and used in the studies. Animal husbandry, feeding and health conditions are according to animal welfare guidelines. VAG539 (30 mg/kg, po) was used as AHRagonist, and test compounds were formulated in suitable vehicles, typically 0.5% methylcellulose).
C57BL/6 mice (n=3 per group) were treated with AHR agonist alone or with AHR agonist and test compounds. Animals were sacrificed at 4 or 10 hours after treatment upon which their livers and spleens were collected and subsequently analyzed by qPCR. Normalized fold induction of cyp1a1 was determined by comparing mCYP1A1 and mGAPDH counts (ct) according to: normalized fold=2^−ΔΔCt. The percent inhibition was calculated according to: […]

[6] abbreviates: 4 h, read-out: Cyp1a1 inhibition, Liver, 4 h.

On to `CC(C)c1n[nH]c2c(NCCc3c[nH]c4ccccc34)nc(-c3cncc(F)c3)nc12` [I-1, 5-(5-Fluoro-3-pyridyl)-N-[2-(1H-indol-3-yl)ethyl]-3-isopropyl-1H-pyrazolo[4,3-d]pyrimidin-7-amine], for which the IC50 – broadly, the concentration at which inhibition is half-maximal – in data set [1] was under 500 nM; in data set [2], 1000 to 1500 nM.

For the molecule `CC(C)n1ccc2c(NCCc3c[nH]c4ccccc34)nc(-c3cncc(F)c3)nc21` [I-4, 2-(5-Fluoro-3-pyridyl)-N-[2-(1H-indol-3-yl)ethyl]-7-isopropyl-pyrrolo[2,3-d]pyrimidin-4-amine], the IC50 in data set [1] and in data set [2] was under 500 nM each time. For the same molecule, in data set [3], the “Mouse S9 Stability: % Remaining After 60 Minutes” value came to 0%.

For `CC(C)n1cnc2c(NCCc3c[nH]c4cccnc34)nc(-c3cncc(F)c3)nc21` [I-7, 2-(5-Fluoro-3-pyridyl)-9-isopropyl-N-[2-(1H-pyrrolo[3,2-b]pyridin-3-yl)ethyl]purin-6-amine], the IC50 was over 1500 nM in data set [1] and under 500 nM in data set [2].

For `CC(C)n1cnc2c(NCCc3c[nH]c4ccccc34)nc(-c3cncc(F)c3)nc21` [I-6], the IC50 in data set [1] and in data set [2] was under 500 nM in each case. The “Mouse S9 Stability: % Remaining After 60 Minutes” value in data set [3] is 0%.

Turning to `CC(C)c1ccc2c(NCCc3c[nH]c4ccccc34)nc(-c3cncc(F)c3)nn12` [I-19, N-(2-(1H-Indol-3-yl)ethyl)-2-(5-fluoropyridin-3-yl)-7-isopropylpyrrolo[2,1-f][1,2,4]triazin-4-amine], the IC50 in data set [1] was under 500 nM; in data set [2], 500 to 1000 nM.

With `CC(C)c1csc2c(NCCc3c[nH]c4ccccc34)nc(-c3cncc(F)c3)nc12` [I-3, N-(2-(1H-indol-3-yl)ethyl)-2-(5-fluoropyridin-3-yl)-7-isopropylthieno[3,2-d]pyrimidin-4-amine], the values for the IC50 in data set [1] and in data set [2] were under 500 nM and 1000 to 1500 nM, respectively.

Turning to `Fc1cncc(-c2cc(NCCc3c[nH]c4ccccc34)n3ncc(Br)c3n2)c1` [I-39, 3-Bromo-5-(5-fluoro-3-pyridyl)-N-[2-(1H-indol-3-yl)ethyl]pyrazolo[1,5-a]pyrimidin-7-amine], in data set [4] (po, 30 mg/kg), the bioavailability (commonly dose-corrected exposure relative to a reference, in per cent) worked out at 17%; the AUC(0-inf) (as a rule, the area under the concentration-time curve extrapolated to infinity) is 1610 ng·h/mL; the AUC(0-t) – broadly, the area under the concentration-time curve up to a stated or last time point – came out at 1600 ng·h/mL; the Cmax – broadly, the peak of the concentration-time curve – was found to be 799 ng/mL. In data set [4] (po, 30 mg/kg), the half-life – broadly, the time needed for the level to fall by half in the phase considered – is 3.35 h. In data set [4] (iv, 3 mg/kg), the AUC(0-inf) stood at 931 ng·h/mL, the AUC(0-t) was 908 ng·h/mL, the clearance (usually the rate of elimination divided by the concentration) amounted to 53.7 mL/min/kg and the half-life was 1.31 h. For the same molecule, the Vd in data set [4] (iv, 3 mg/kg) came to 3.5 L/kg. Moreover, the inhibition (commonly the change of the read-out against control, counted positive when it falls) at 30 mg/kg in data set [5] (setting [6]) was determined as 90%. In addition, the inhibition at 30 mg/kg in data set [5] (4 h, read-out: Cyp1a1 inhibition, Spleen, 4 h) worked out at 69%. Besides, the IC50 in data set [1] was under 500 nM. For the same molecule, in data set [3], the “Mouse S9 Stability: % Remaining After 60 Minutes” value is 30%.

As to `Fc1cncc(-c2cc(NCCc3c[nH]c4ccccc34)n3nccc3n2)c1` [I-103, 5-(5-Fluoro-3-pyridyl)-N-[2-(1H-indol-3-yl)ethyl]pyrazolo[1,5-a]pyrimidin-7-amine], in data set [4] (po, 30 mg/kg), the bioavailability turned out to be 6%, the AUC(0-inf) turned out to be 671 ng·h/mL, the AUC(0-t) was found to be 649 ng·h/mL and the highest level (Cmax) was 713 ng/mL. For the same molecule, in data set [4] (po, 30 mg/kg), the Tmax (as a rule, the time from dosing to the highest level) was found to be 0.2 h and the half-life is 2.15 h. Further, in data set [4] (iv, 3 mg/kg), the AUC(0-inf) is 1140 ng·h/mL, the AUC(0-t) was 1140 ng·h/mL, the clearance is 43.9 mL/min/kg and the half-life was 0.62 h. Moreover, the Vd in data set [4] (iv, 3 mg/kg) was 1.4 L/kg. Further, the inhibition at 30 mg/kg in data set [5] (setting [6]) is 94%. Further, the inhibition at 30 mg/kg in data set [5] (10 h, read-out: Cyp1a1 inhibition, Liver, 10 h) is 0%. In addition, in data set [1], the IC50 is under 500 nM. For the same molecule, in data set [3], the “Mouse S9 Stability: % Remaining After 60 Minutes” value amounted to 7%.

As for `CC(C)n1cnc2c(NCCc3c[nH]c4cnccc34)nc(-c3cncc(F)c3)nc21` [I-9, 2-(5-Fluoro-3-pyridyl)-9-isopropyl-N-[2-(1H-pyrrolo[2,3-c]pyridin-3-yl)ethyl]purin-6-amine], the IC50 was 500 to 1000 nM in data set [1] and 1000 to 1500 nM in data set [2].

Turning to `Fc1cncc(-c2nc(NCCc3c[nH]c4ccccc34)c3ccsc3n2)c1` [I-5, N-(2-(1H-indol-3-yl)ethyl)-2-(5-fluoropyridin-3-yl)thieno[2,3-d]pyrimidin-4-amine], the IC50 was under 500 nM in data set [1] and over 1500 nM in data set [2].
